Assay [1] concerns the target T1, Human GHSR (Homo sapiens, UniProt Q92847). Nature of the assay: GHS-R GTPγS functional antagonist assay. The settings on record: membranes of HEK293T cells transiently expressing GHS-R; human Ghrelin at EC80; [35S]GTPγS SPA. Format: biochemical. The arrangement: The full-length gene was transferred into pCDN for expression analysis; expressed in transfected cells; host or cells: CHO cells (electroporated, pCDN) or HEK293T cells (transient, pcDNA3); membranes prepared from the cultured cells. The procedure:
Human GHS-R was cloned from human hypothalamus cDNA and TOPO Ta cloned into pCR2.1. The sequence was confirmed. The full-length gene was transferred into pCDN for expression analysis. The sequence was confirmed again and the plasmid was electroporated into CHO cells. The clones were screened by FLIPR.
HEK293T cells (HEK293 cells stably expressing the SV40 large T-antigen) were maintained in DMEM containing 10% (v/v) newborn calf serum and 2 mM glutamine. Cells were seeded in 60 mm culture dishes and grown to 60-80% confluency (18-24 h) prior to transfection with pcDNA3 containing the relevant DNA species using Lipofectamine reagent. […]
The plate was then incubated on a shaker at room temperature for 30 mins followed by centrifugation for 5 mins at 1500 rpm. The plate was read between 3 and 6 hours after completion of centrifuge run in a Wallac Microbeta counter on a 1 min normalised tritium count protocol. Data was analysed using a 4-parameter logistic equation. […]
Protocol as described above for functional agonist assay, except prior to addition of the [35-S], 10 ul of human Ghrelin solution in assay buffer was added to give a final concentration equating to EC80 (determined for each assay).

The target in assay [2] is T1, Human GHSR. Nature of the assay: GHSR Antagonist BACMAM FLIPR Assay (Method B). Format: cell-based. The arrangement: The full-length gene was transferred into pCDN for expression analysis; expressed in transfected cells; host or cells: U2OS cells transduced with human GHSR BacMam virus (pFastBacmam, CMV promoter). The following applies: U2OS cells transduced with human GHSR BACMAM virus, EC80 hGhrelin, accurate to within ±0.5. The source says:
Human GHS-R was cloned from human hypothalamus cDNA and TOPO Ta cloned into pCR2.1. The sequence was confirmed. The full-length gene was transferred into pCDN for expression analysis. The sequence was confirmed again and the plasmid was electroporated into CHO cells. The clones were screened by FLIPR. The open reading frame of GHS-R was transferred from pCDN into pFastBacmam vector. This vector was used to generate recombinant baculoviruses in which the insect cell-specific polyhedrin promoter has been replaced with a mammalian cell-active promoter, in this case CMV. This was then used with the Bac to Bac expression system (Invitrogen). Briefly the vector was transformed into DH10 bac E. coli and the bacmid isolated from the transformed cells. The bacmid was then transfected into Sf9 insect cells grown in ExCell 420 (JRH) medium in 6-well dishes for the production of recombinant baculovirus particules. 24 hours prior to assay U2OS cells at confluence 100% were harvested and spun down. The supernatant was removed and the cells resuspended in media (DMEM+10% FBS+1% L-Glutamine). […] Human GHSR BACMAM virus was added to the cell suspension at an appropriate % volume (calculated for individual batches of BACMAM virus as viral titres vary). […] Maximum changes in fluorescence were plotted and curves fitted using a 4-parameter logistic equation to generate pIC50 values.

For assay [3], the target named is T1, Human GHSR. Nature of the assay: GHSR Agonist BACMAM FLIPR Assay (Method Y). Format: cell-based. Set-up: The full-length gene was transferred into pCDN for expression analysis; expressed in transfected cells; host or cells: U2OS cells transduced with human GHSR BacMam virus (pFastBacmam, CMV promoter). The following applies: U2OS cells transduced with human GHSR BACMAM virus, accurate to within ±0.5. From the text:
Human GHS-R was cloned from human hypothalamus cDNA and TOPO Ta cloned into pCR2.1. The sequence was confirmed. The full-length gene was transferred into pCDN for expression analysis. The sequence was confirmed again and the plasmid was electroporated into CHO cells. The clones were screened by FLIPR. The open reading frame of GHS-R was transferred from pCDN into pFastBacmam vector. This vector was used to generate recombinant baculoviruses in which the insect cell-specific polyhedrin promoter has been replaced with a mammalian cell-active promoter, in this case CMV. This was then used with the Bac to Bac expression system (Invitrogen). Briefly the vector was transformed into DH10 bac E. coli and the bacmid isolated from the transformed cells. […] Human GHSR BACMAM virus was added to the cell suspension at an appropriate % volume (calculated for individual batches of BACMAM virus as viral titres vary). […] The plates were placed in a FLuorimetric Imaging Plate Reader (FLIPR, Molecular Devices) where 10 μl of compound was added to the cells and fluorescence measurements were taken. […] Intrinsic activity of the compounds was calculated by using the maximum asymptote of it's concentration response curve relative to the maximum asymptote of the hGhrelin concentration response curve.

The structures appear in SMILES notation. Counter-ions that a name gives are not always drawn. Some results are limits rather than exact numbers.

Broadly, the Ki is the dissociation constant of the complex between target and ligand, obtained from inhibition or displacement. A high value points to lower affinity. A word on the IC50: it is the midpoint of a concentration-inhibition curve. The low end stands for higher potency, the high end for lower potency. Broadly, the EC50 is the concentration that produces a half-maximal response.

T1 sequence (Q92847 whole entry): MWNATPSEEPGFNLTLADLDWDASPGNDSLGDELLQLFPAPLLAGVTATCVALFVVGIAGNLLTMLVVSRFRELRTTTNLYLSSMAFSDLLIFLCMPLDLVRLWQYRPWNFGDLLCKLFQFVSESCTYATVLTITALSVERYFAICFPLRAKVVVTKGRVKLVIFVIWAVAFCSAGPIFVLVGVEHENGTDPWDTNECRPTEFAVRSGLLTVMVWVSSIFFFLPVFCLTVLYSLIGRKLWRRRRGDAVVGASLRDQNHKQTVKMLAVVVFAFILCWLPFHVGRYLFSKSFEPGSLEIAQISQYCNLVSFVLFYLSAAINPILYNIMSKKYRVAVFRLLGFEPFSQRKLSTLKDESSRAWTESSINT

In assay [1], `CN1CCN(C(C(=O)NCc2cc(Cl)cc(Cl)c2)c2cccc3ccccc23)CC1` (racemic) [Compound 1, (±)-N-[(3,5-dichlorophenyl)methyl]-2-(4-methyl-1-piperazinyl)-2-(1-naphthalenyl)ethanamide] had a Ki of less than 10 nM.

In assay [2], `CN1CCN([C@@H](C(=O)NCc2cc(Cl)cc(Cl)c2)c2cccc3ccccc23)CC1` [Compound 3, (2R)-N-[(3,5-dichlorophenyl)methyl]-2-(4-methyl-1-piperazinyl)-2-(1-naphthalenyl)ethanamide hydrochloride] gave an IC50 of 10 nM. Further, the 50% effective concentration (EC50) in assay [3] is more than 2000 nM. This compound gave a Ki in assay [1] of less than 10 nM.
